In US20090047279A1, “(R)-N-Stereoisomers of 7,8-Saturated-4,5-Epoxy-Morphinanium Analogs” (Progenics Pharmaceuticals, Inc., priority 2006, published 2009):
Where a name gives a salt, the structure may show the parent alone.

Legend:
μ-opioid receptors [1] = test: Evaluation of agonist activity, guinea pig ileum test; conditions: for Response to the compound + Naloxone (1.0E−07 M): compound 1.0E−04 M + naloxone 1.0E−07 M
Experimental: (§1) Agonist/antagonist activity at the μ-opioid receptor was determined using the well known guinea pig ileum test. Briefly, an a section of ileum section was placed in a stabilizing solution in a tensed state. Transducers were used to measure changes in tension upon electrical stimulation to the tissue before and after challenge with a potential agonist/antagonist Using a control, constriction inhibition, and constriction inhibition cancellation, may be measured.
(§2) The results are expressed as a percent of the control response to DAMGO (decrease in which contract amplitude)

μ-opioid receptors [2] = test: Evaluation of antagonist activity, guinea pig ileum test (responses to DAMGO)
Experimental: as §1, §2

[3] = 1.0E−08 M, control DAMGO 1.0E−07 M = 100

| Structure (SMILES) | Responses to increasing concentrations of the compounds (μ-opioid receptors [1]; 1.0E−06 M) | Responses to increasing concentrations of the compounds (μ-opioid receptors [1]; 1.0E−07 M) | Responses to increasing concentrations of the compounds (μ-opioid receptors [1]; [3]) | Responses to DAMGO (1.0E−07 M) in the presence of increasing concentrations of the compounds (μ-opioid receptors [2]; 1.0E−04 M) | Responses to DAMGO (1.0E−07 M) in the presence of increasing concentrations of the compounds (μ-opioid receptors [2]; 1.0E−05 M) | Responses to DAMGO (1.0E−07 M) in the presence of increasing concentrations of the compounds (μ-opioid receptors [2]; 1.0E−06 M) | Responses to DAMGO (1.0E−07 M) in the presence of increasing concentrations of the compounds (μ-opioid receptors [2]; 1.0E−07 M) | Responses to DAMGO (1.0E−07 M) in the presence of increasing concentrations of the compounds (μ-opioid receptors [2]; 1.0E−08 M) | Responses to DAMGO (1.0E−07 M) in the presence of increasing concentrations of the compounds (μ-opioid receptors [2]; 3.0E−05 M) | Responses to DAMGO (1.0E−07 M) in the presence of increasing concentrations of the compounds (μ-opioid receptors [2]; 3.0E−06 M) | Responses to DAMGO (1.0E−07 M) in the presence of increasing concentrations of the compounds (μ-opioid receptors [2]; 3.0E−07 M) | Responses to DAMGO (1.0E−07 M) in the presence of increasing concentrations of the compounds (μ-opioid receptors [2]; 3.0E−08 M) | Responses to increasing concentrations of the compounds (μ-opioid receptors [1]; 1.0E−04 M) | Responses to increasing concentrations of the compounds (μ-opioid receptors [1]; 1.0E−05 M) | Responses to increasing concentrations of the compounds (μ-opioid receptors [1]; 3.0E−05 M) | Responses to increasing concentrations of the compounds (μ-opioid receptors [1]; 3.0E−06 M) | Responses to increasing concentrations of the compounds (μ-opioid receptors [1]; 3.0E−07 M) | Responses to increasing concentrations of the compounds (μ-opioid receptors [1]; 3.0E−08 M) | Response to the compound + Naloxone (1.0E−07 M) (μ-opioid receptors [1]) | other results |
| --- | --- | --- | --- | --- | --- | --- | --- | --- | --- | --- | --- | --- | --- | --- | --- | --- | --- | --- | --- | --- |
| C[C@@H](NC(=O)[C@@H](N)Cc1ccc(O)cc1)C(=O)NCC(=O)N(C)[C@@H](Cc1ccccc1)C(=O)NCCO [DAMGO, reference compound] | 103% of the control response to DAMGO | 96% of the control response to DAMGO | 57% of the control response to DAMGO | – | – | – | – | – | – | – | – | – | – | – | – | – | – | – | – | Responses to increasing concentrations of the compounds (μ-opioid receptors [1]; 1.0E−09 M): 9% of the control response to DAMGO; Response to DAMGO + Naloxone (1.0E−07 M) (μ-opioid receptors [1]; DAMGO after the highest concentration, + naloxone 1.0E−07 M): 4% of the control response to DAMGO |
| C[N@+]1(CC2CCCC2)CC[C@]23c4c5ccc(O)c4O[C@H]2C(=O)CC[C@@]3(O)[C@H]1C5 [(R)-CPTM, (R)-17-cyclopentylmethyl-4,5α-epoxy-3,14-dihydroxy-17-methyl-6-oxomorphinanium iodide] | 0% of the control response to DAMGO | 0% of the control response to DAMGO | 0% of the control response to DAMGO | 40% of the control response to DAMGO | 28% of the control response to DAMGO | 21% of the control response to DAMGO | 84% of the control response to DAMGO | 100% of the control response to DAMGO | 34% of the control response to DAMGO | −1% of the control response to DAMGO | 63% of the control response to DAMGO | 96% of the control response to DAMGO | 18% of the control response to DAMGO | 0% of the control response to DAMGO | 12% of the control response to DAMGO | 0% of the control response to DAMGO | 0% of the control response to DAMGO | 0% of the control response to DAMGO | 18% of the control response to DAMGO | – |
| CCCOC1C[C@@H](O)[C@@H]2Oc3c(O)ccc4c3[C@@]23CC[N+](C)(CC2CC2)[C@H](C4)[C@]13O (stereo partly drawn) [(R)-CPM, trifluoroacetate] | 0% of the control response to DAMGO | 0% of the control response to DAMGO | 0% of the control response to DAMGO | 22% of the control response to DAMGO | 5% of the control response to DAMGO | 32% of the control response to DAMGO | 90% of the control response to DAMGO | 100% of the control response to DAMGO | 12% of the control response to DAMGO | 11% of the control response to DAMGO | 69% of the control response to DAMGO | 100% of the control response to DAMGO | 22% of the control response to DAMGO | 0% of the control response to DAMGO | 5% of the control response to DAMGO | 0% of the control response to DAMGO | 0% of the control response to DAMGO | 0% of the control response to DAMGO | 17% of the control response to DAMGO | – |
